According to ChEMBL document CHEMBL1201862, “PubChem BioAssay data set” (2004):
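Five concentrations, 48 hours, 96-well plates. GI50 is the concentration that inhibits growth by half.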 Activity calls are given as the source filed them. Rule as the data show it: active = GI50 up to about 1.1 µM and inactive = higher.

Legend:
Assay in all cases: DTP human tumour cell line panel, 48 h
SK-MEL-28 = test system: SK-MEL-28
MOLT-4 = test system: MOLT-4
ACHN = test system: ACHN
EKVX = test system: EKVX
HL-60 = test system: HL-60
NCI-H460 = test system: NCI-H460
HCT-116 = test system: HCT-116
HOP-62 = test system: HOP-62
SF-539 = test system: SF-539
SN12C = test system: SN12C
HCT-15 = test system: HCT-15
RPMI-8226 = test system: RPMI-8226
UACC-257 = test system: UACC-257
CAKI-1 = test system: CAKI-1
HCC 2998 = test system: HCC 2998

| Compound | GI50 (SK-MEL-28) | GI50 (MOLT-4) | GI50 (ACHN) | GI50 (EKVX) | GI50 (HL-60) | GI50 (NCI-H460) | GI50 (HCT-116) | GI50 (HOP-62) | GI50 (SF-539) | GI50 (SN12C) | GI50 (HCT-15) [µM] | GI50 (RPMI-8226) | GI50 (UACC-257) | GI50 (CAKI-1) | GI50 (HCC 2998) |
| --- | --- | --- | --- | --- | --- | --- | --- | --- | --- | --- | --- | --- | --- | --- | --- |
| O=C1NC2(C=Cc3c(ccc4ccccc34)O2)Oc2ccccc21 (centres undefined) | 15.6 µM (inactive) | 7.8 µM (inactive) | 18.7 µM (inactive) | 21.1 µM (inactive) | 4.81 µM (inactive) | 27.2 µM (inactive) | 12.7 µM (inactive) | 31.7 µM (inactive) | 15.5 µM (inactive) | 17.4 µM (inactive) | 7.46 | 6.08 µM (inactive) |  |  |  |
| CCc1ccccc1NC(=O)C(=O)C(C(=O)c1ccc(OC)cc1)c1ccc(OC)cc1 (centres undefined) |  | 94.2 µM (inactive) | > 100 µM (inactive) | > 100 µM (inactive) | > 100 µM (inactive) | > 100 µM (inactive) | > 100 µM (inactive) | > 100 µM (inactive) | > 100 µM (inactive) | > 100 µM (inactive) | > 100 | > 100 µM (inactive) | > 100 µM (inactive) | > 100 µM (inactive) | > 100 µM (inactive) |
| CCOC(=O)N1CCc2cc(OC)c(OC)c3c2C1CC3=O (centres undefined) |  | > 100 µM (inactive) | > 100 µM (inactive) |  | > 100 µM (inactive) | > 100 µM (inactive) | > 100 µM (inactive) | > 100 µM (inactive) | > 100 µM (inactive) | > 100 µM (inactive) | > 100 | > 100 µM (inactive) | > 100 µM (inactive) | > 100 µM (inactive) | > 100 µM (inactive) |
| O=C(NCCCCCCCCNC(=O)c1cnc2ccccc2n1)c1cnc2ccccc2n1 |  | > 100 µM (inactive) | > 100 µM (inactive) | > 100 µM (inactive) | > 100 µM (inactive) | > 100 µM (inactive) | > 100 µM (inactive) | > 100 µM (inactive) | > 100 µM (inactive) | > 100 µM (inactive) | > 100 | > 100 µM (inactive) | > 100 µM (inactive) | > 100 µM (inactive) |  |
| Cc1nc2ccccc2c(=O)n1-c1ccccc1F | > 100 µM (inactive) | > 100 µM (inactive) | > 100 µM (inactive) | > 100 µM (inactive) | > 100 µM (inactive) | > 100 µM (inactive) | > 100 µM (inactive) | > 100 µM (inactive) | > 100 µM (inactive) | > 100 µM (inactive) | > 100 |  | > 100 µM (inactive) | > 100 µM (inactive) | > 100 µM (inactive) |
| CN(OC(=O)CC(=O)c1ccccc1)C(=O)Cc1ccccc1 |  |  | > 100 µM (inactive) | > 100 µM (inactive) | > 100 µM (inactive) | > 100 µM (inactive) | > 100 µM (inactive) | > 100 µM (inactive) | > 100 µM (inactive) | > 100 µM (inactive) | > 100 | 46.7 µM (inactive) | > 100 µM (inactive) | > 100 µM (inactive) |  |
| COC(=O)c1c(CC#N)cccc1CC#N |  | > 100 µM (inactive) | > 100 µM (inactive) | > 100 µM (inactive) | > 100 µM (inactive) | > 100 µM (inactive) | > 100 µM (inactive) | > 100 µM (inactive) | > 100 µM (inactive) | > 100 µM (inactive) | > 100 | > 100 µM (inactive) | > 100 µM (inactive) | > 100 µM (inactive) | > 100 µM (inactive) |
| C=C(CO)CC(O)c1cc(OC)ccc1OC (centres undefined) | > 100 µM (inactive) | > 100 µM (inactive) | > 100 µM (inactive) | > 100 µM (inactive) | > 100 µM (inactive) | > 100 µM (inactive) |  | > 100 µM (inactive) | > 100 µM (inactive) | > 100 µM (inactive) | > 100 | > 100 µM (inactive) | > 100 µM (inactive) | > 100 µM (inactive) | > 100 µM (inactive) |
| O=C1CCC(=O)N1CNc1cccc(NCN2C(=O)CCC2=O)c1 | > 100 µM (inactive) | 52.6 µM (inactive) | 71.4 µM (inactive) | > 100 µM (inactive) | 20.1 µM (inactive) | > 100 µM (inactive) | 64.3 µM (inactive) | > 100 µM (inactive) | > 100 µM (inactive) | > 100 µM (inactive) | 61 | 17.3 µM (inactive) | 71.6 µM (inactive) |  | > 100 µM (inactive) |
| CC(=O)Nc1ccc(S(=O)(=O)NN(C)S(=O)(=O)c2ccc(C)cc2)cc1 | > 100 µM (inactive) | > 100 µM (inactive) | > 100 µM (inactive) | > 100 µM (inactive) | > 100 µM (inactive) | > 100 µM (inactive) | > 100 µM (inactive) | > 100 µM (inactive) | > 100 µM (inactive) | > 100 µM (inactive) |  | > 100 µM (inactive) | > 100 µM (inactive) | > 100 µM (inactive) | > 100 µM (inactive) |
